# In US7592451B2, “Treatment for diabetes and obesity as well as method of screening compounds useful for such treatments” (New York University, priority 2005, dated 2009):
# How the values were obtained:
# [1] = tested on: Daf-2 mutant C. elegans strain e1370; experiment: Dauer formation screen in Daf-2 mutant C. elegans; assay type: in vivo; conditions: L2 stage worms soaked in 100 μM compound, warmed to 25° C.
# Procedure: The Daf-2 mutant C. elegans strain e1370 was grown on nematode growth media (NGM) agar plates with E. coli (OP50) under standard conditions at 16° C. C. elegans mutant strains were obtained from the Caenorhabditis Genetics Center. Twenty synchronized early L2 animals grown at 16° C. were soaked in 96-well plates containing 100 μM of compounds/2% OP50 culture/M9 buffer, and then incubated at 25° C. for 4 days.
# TG-Bz library (1120 members) compounds were screened in L2 stage worms grown at 16° C. by soaking in a 100 μM chemical solution and were warmed up to 25° C., in which 100% of untreated Daf-2 mutant larvae enter dauer within 24 hours. […] E3 is the TGBz control compound (FIG. 2C).
# 3T3-L1 pre-adipocytes = experiment: Glucose uptake (2-NBDG) by 3T3-L1 pre-adipocytes; assay type: cell-based
# Procedure: To validate the relevance of this C. elegans data to a mammalian system, F43 was tested for glucose uptake in 3T3-L1 pre-adipocytes using a fluorescent derivative of glucose, 2-NBD-deoxyglucose (Moon et al., “A Novel Microtubule Destabilizing Entity from Orthogonal Synthesis of Triazine Library and Zebrafish Embryo Screening,” J. Am. Chem. Soc. 124:11608-11609 (2002), which is hereby incorporated by reference in its entirety).
# 3T3-L1 pre-adipocytes, were grown in DMEM (Dulbecco's Modified Eagle Medium Media) containing 1% antibiotics, and 10% heat-inactivated newborn calf serum under a humidified 5% CO2 atmosphere. The cells were seeded in 48-well plates and allowed to adhere to the dish overnight. Cultures at 70-80% confluence were used for the chemical exposures. […] Fluorescence intensity was measured in a fluorescence micro-plate reader at λex=466 nm and λem=540 nm.
# FIGS. 3A-B show the up-regulation of glucose uptake by 3T3-L1 pre-adipocytes upon treatment with Insulin, the TGBz compound F43, and the TGBz compound E3 as a control. […] Following incubation with the dye for 15 min. at 37° C., cells were washed with ice-cold PBS, and the fluorescence intensity was measured. The uptake of the fluorescent 2-NBDG was visualized by a Leica 2000 fluorescence microscope with excitation at 488 nm and long-pass detection at 530 nm and measured by a fluorescence microplate reader. […]
# rabbit muscle GAPDH = molecular target: T1, rabbit muscle GAPDH (Oryctolagus cuniculus, UniProt P46406); experiment: In vitro GAPDH inhibition assay (NADH fluorescence); assay type: biochemical; conditions: 0.2 mM GAP, 0.1 mM NAD+, pH 8.6; read-out: IC50 against GAPDH
# T1 construct: host or cells: rabbit muscle
# T1 sequence (P46406 2-333 limits assumed): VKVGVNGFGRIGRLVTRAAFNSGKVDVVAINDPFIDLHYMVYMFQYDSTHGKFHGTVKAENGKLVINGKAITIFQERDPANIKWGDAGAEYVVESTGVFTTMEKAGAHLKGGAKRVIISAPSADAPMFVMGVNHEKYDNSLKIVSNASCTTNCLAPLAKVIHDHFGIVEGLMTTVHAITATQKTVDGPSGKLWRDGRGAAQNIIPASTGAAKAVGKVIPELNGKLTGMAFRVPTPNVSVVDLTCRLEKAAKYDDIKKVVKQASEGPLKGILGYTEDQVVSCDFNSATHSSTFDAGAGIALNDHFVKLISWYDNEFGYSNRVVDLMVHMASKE
# Procedure: Rabbit muscle GAPDH and glyceraldehydes-3-phosphate (GAP) were employed. The assay was performed in black polypropylene 96-well micro-titer plates using a 100 μl solution of 100 mM sodium phosphate at pH 8.6, 5 mM EDTA, 0.2 mM GAP, 0.1 mM NAD^+, 0.5 units of GAPDH in the presence of varying concentrations of compound. The reaction was initiated by addition of GAP. Amounts of produced NADH was monitored by a fluorescence plate reader, at λex=340 nm, λem=460 nm (ex=excitation, em=emission wave length) (FIG. 7).
structure (smiles),measurement,setting,value
O=C(NCCOCCOCCNc1nc(NCCc2ccc(O)c(O)c2)nc(Nc2ccccc2)n1)c1ccccc1 [F43],effect on dauer formation,[1],inhibits dauer formation
same,glucose uptake (2-NBDG fluorescence),"3T3-L1 pre-adipocytes; 15 min incubation, 100 μM 2-NBDG, compound up to 10 μM",dose dependent glucose uptake was observed
same,glucose uptake on co-treatment with insulin,"3T3-L1 pre-adipocytes; co-treatment with insulin (100 nM), 15 min",synergistic effect
same,IC50,rabbit muscle GAPDH,4 µM
